Source: ChEMBL document CHEMBL5465560, “Selectivity Literature for EUbOPEN Chemogenomic Library” (2024)
One block for each compound: values may come before it.

Tests used:
[1] = target: Serine/threonine-protein kinase 33 (Homo sapiens) (UniProt Q9BYT3); experiment: Selectivity interaction (KinomeScan (DiscoverX)) EUB0000229b STK33; settings: at 10 µM
[2] = target: T1, Mitogen-activated protein kinase kinase kinase 5 (Homo sapiens) (UniProt Q99683); experiment: Selectivity interaction (Upstate Kinase Profiler service (Millipore)) EUB0000056c MAP3K5; settings: at 1 µM
T1 sequence (whole entry): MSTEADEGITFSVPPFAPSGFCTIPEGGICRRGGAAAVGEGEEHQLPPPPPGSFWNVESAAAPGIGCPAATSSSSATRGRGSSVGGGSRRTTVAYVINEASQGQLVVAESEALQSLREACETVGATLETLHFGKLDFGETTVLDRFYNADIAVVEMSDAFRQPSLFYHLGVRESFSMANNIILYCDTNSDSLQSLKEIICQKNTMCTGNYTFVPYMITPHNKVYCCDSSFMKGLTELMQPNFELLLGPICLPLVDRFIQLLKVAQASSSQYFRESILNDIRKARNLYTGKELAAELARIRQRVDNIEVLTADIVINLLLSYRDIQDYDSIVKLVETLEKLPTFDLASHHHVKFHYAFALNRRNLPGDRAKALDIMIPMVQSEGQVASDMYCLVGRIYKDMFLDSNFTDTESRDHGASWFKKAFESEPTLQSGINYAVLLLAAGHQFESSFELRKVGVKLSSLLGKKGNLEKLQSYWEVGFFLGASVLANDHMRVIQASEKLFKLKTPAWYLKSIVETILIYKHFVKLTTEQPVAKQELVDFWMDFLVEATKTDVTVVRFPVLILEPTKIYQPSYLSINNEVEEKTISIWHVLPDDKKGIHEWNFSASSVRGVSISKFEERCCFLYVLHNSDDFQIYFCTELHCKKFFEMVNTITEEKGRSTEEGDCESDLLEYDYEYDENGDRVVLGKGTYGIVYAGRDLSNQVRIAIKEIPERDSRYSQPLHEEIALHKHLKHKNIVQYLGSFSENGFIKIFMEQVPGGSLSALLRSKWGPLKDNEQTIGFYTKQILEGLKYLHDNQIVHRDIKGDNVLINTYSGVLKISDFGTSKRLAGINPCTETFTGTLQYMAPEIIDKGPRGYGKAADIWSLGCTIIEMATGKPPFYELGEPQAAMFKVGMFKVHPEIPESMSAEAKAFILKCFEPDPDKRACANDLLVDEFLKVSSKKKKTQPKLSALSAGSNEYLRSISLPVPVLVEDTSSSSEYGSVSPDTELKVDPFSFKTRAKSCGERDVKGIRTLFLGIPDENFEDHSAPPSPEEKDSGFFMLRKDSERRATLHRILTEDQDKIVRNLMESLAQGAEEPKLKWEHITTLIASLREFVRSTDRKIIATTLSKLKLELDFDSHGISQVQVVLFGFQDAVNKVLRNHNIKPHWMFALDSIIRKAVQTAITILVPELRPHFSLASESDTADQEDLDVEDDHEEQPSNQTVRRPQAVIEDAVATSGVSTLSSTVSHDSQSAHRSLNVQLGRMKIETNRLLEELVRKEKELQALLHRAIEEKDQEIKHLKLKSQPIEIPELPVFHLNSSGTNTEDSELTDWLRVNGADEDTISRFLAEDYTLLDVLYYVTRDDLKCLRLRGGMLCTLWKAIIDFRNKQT

[3] = target: Amine oxidase [flavin-containing] A (Homo sapiens, UniProt P21397); experiment: Selectivity interaction (Monoamine Oxidase A, human recombinant baculovirus ) EUB0000877a MAOA
[4] = target: Sigma non-opioid intracellular receptor 1 (Homo sapiens) (UniProt Q99720); experiment: Selectivity interaction (GPCR panel (PDSP screen)) EUB0000311b SIGMAR1; settings: at 10 µM
[5] = target: T2, Ephrin type-B receptor 3 (Homo sapiens) (UniProt P54753); experiment: Selectivity interaction (ActivX KiNativ screen (kinase selectivity in THP-1 cell lysates)) EUB0000639a EPHB3; assay type: subcellular; settings: lysate
T2 sequence (whole entry): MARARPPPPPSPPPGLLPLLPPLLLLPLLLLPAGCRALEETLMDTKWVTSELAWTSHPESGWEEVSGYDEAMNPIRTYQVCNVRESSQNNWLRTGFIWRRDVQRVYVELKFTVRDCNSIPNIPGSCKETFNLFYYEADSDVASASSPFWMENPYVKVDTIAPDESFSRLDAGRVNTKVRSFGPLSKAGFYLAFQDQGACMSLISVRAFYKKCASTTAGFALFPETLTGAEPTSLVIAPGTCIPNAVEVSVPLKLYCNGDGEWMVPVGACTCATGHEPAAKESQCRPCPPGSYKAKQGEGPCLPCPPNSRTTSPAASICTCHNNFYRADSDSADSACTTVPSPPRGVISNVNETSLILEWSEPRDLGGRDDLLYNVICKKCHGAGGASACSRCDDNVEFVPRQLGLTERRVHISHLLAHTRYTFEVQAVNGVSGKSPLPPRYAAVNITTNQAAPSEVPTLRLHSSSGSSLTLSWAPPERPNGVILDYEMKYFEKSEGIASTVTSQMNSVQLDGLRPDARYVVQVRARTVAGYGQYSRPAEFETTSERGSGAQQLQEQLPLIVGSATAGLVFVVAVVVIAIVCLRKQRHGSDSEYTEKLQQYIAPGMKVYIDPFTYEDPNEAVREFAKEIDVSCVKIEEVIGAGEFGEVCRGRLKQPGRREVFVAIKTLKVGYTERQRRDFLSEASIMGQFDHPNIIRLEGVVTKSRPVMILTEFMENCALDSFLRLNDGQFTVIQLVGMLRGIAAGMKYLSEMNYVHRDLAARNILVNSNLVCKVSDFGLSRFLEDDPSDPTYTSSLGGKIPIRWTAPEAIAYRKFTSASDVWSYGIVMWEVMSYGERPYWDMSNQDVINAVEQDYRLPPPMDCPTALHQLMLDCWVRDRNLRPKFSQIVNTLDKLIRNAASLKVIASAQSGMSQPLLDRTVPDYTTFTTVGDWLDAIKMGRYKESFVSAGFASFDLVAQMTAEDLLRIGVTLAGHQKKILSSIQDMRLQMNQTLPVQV

[6] = target: Serine/threonine-protein kinase 38 (Homo sapiens) (UniProt Q15208); experiment: Selectivity interaction (ActivX KiNativ screen (kinase selectivity in THP-1 cell lysates)) EUB0000639a STK38; assay type: subcellular; settings: lysate, at 1 µM
Serine/threonine-protein kinase 38 (Homo sapiens), sequence (Q15208 2-465 limits assumed): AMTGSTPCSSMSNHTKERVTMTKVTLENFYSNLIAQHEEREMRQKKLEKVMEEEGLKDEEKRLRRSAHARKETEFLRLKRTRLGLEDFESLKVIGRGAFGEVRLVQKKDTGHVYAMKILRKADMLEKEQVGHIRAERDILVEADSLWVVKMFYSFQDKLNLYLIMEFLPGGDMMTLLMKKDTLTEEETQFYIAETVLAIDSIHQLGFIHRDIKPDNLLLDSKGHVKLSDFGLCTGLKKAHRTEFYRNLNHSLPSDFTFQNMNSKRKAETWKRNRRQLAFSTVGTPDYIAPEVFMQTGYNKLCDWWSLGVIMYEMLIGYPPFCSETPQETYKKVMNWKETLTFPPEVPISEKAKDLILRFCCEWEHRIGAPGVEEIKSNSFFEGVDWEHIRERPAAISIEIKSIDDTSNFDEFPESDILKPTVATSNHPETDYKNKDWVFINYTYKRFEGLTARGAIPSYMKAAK

Sigma non-opioid intracellular receptor 1 (Homo sapiens), sequence (Q99720 whole entry): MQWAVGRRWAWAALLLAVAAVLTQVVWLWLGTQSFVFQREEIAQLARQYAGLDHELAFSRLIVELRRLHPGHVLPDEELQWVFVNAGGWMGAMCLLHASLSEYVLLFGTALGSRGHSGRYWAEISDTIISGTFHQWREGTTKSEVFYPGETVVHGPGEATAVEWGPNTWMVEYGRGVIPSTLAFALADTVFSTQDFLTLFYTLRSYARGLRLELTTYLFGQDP
Amine oxidase [flavin-containing] A, sequence (P21397 whole entry): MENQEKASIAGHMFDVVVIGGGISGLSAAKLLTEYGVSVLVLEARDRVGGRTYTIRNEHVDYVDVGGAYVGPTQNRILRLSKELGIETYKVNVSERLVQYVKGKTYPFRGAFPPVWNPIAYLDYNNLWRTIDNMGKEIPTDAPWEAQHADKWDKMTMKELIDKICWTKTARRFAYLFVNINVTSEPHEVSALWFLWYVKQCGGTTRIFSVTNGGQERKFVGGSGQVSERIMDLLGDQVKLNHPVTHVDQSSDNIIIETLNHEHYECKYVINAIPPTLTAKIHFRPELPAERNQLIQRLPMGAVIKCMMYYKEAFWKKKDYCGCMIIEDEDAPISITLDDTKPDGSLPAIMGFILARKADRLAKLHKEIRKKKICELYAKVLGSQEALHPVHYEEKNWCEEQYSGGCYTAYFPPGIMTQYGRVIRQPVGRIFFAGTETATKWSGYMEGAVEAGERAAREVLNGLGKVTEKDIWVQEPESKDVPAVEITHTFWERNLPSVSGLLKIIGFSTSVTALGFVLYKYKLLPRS
Serine/threonine-protein kinase 33 (Homo sapiens), sequence (Q9BYT3 whole entry, looked up): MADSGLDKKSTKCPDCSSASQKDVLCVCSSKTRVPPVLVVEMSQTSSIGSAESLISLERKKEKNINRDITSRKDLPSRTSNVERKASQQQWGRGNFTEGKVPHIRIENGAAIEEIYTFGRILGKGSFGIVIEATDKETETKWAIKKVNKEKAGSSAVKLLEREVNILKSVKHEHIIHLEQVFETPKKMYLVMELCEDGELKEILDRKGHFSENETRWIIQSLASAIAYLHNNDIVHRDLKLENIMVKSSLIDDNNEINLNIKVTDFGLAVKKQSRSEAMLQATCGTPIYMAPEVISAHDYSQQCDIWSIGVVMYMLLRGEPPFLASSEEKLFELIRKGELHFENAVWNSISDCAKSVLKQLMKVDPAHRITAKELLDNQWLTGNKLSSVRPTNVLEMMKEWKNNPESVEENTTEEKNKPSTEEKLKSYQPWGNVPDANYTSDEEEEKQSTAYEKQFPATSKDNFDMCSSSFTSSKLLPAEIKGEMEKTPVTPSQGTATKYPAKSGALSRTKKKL

SMILES: COc1cc(N(C)c2ccnc3ccc(C(F)(F)F)cc23)cc(OC)c1OC
- % binding [1]: 92%

SMILES: Cc1ccc(-c2ccc3c(ccc4sc5c(c43)NC[C@@H](C)NC5=O)n2)cn1
- % of inhibition [2]: 90%

SMILES: CCC(=O)N1CC[C@H](Nc2ncnc3c2CN(c2cnc(OC)c(C(F)(F)F)c2)CC3)C1 [LENIOLISIB]
- IC50 [3]: > 30 µM

More lines, now with the values ahead:

- % of inhibition [4]: 30.5%
SMILES: CCc1ccccc1C(=O)Nc1n[nH]c2c(C)c(F)c(C3C(C#N)=C(C)N(C)C(C)=C3C#N)cc12 [BAY-3827]

- % of inhibition ([5]; at 0.01 µM): -3.9%
- % of inhibition ([5]; at 0.04 µM): -40.1%
- % of inhibition ([5]; at 0.2 µM): -48.3%
- % of inhibition ([5]; at 1 µM): -34.8%
- % of inhibition ([5]; at 5 µM): -22.6%
- % of inhibition [6]: 65.8%
SMILES: CC[C@@H]1[C@H](F)C(=O)N[C@@H]1COc1nccc2cc(C(N)=O)c(OC)cc12 [ZIMLOVISERTIB]
